Results on 14 compounds are retold here after patent publication US20140057953A1, “BIARYL DERIVATIVES AS SELECTIVE 17BETA-HYDROXYSTEROID DEHYDROGENASE TYPE 2 INHIBITORS” (priority 2011, published 2014).

Molecules are shown by their SMILES. Like-named read-outs stand apart in the source and are kept apart here.

As a reminder, the IC50 is the midpoint of a concentration-inhibition curve. A higher IC50 goes with weaker potency in that assay. Usually inhibition stands for the share of the control response that was lost under treatment. High values mean strong suppression, low ones little suppression.

Assay [1] concerns osteoporosis model. The settings on record: monkeys; cited from earlier work.
The target in assay [2] is ERβ (Homo sapiens, UniProt Q92731). Kind of assay: ER affinity assay (ERβ), [3H]-E2 displacement. The settings on record: Relative Binding Affinity, E2 = 100%; recombinant human protein. On the procedure: (§1) The binding affinity of selected compounds to the ERα and ERβ was determined according to Zimmermann et al. (Zimmermann, J. et al., 3. Steroid Biochem. Mol. Biol., 94:57-66 (2005)) using recombinant human proteins. Briefly, 0.25 μM of ERα or ERβ, respectively, were incubated with [^3H]-E2 (10 nM) and test compound for 1 h at room temperature. The potential inhibitors were dissolved in DMSO (5% final concentration). Evaluation of non-specific-binding was performed with diethylstilbestrol (10 μM). After incubation, ligand-receptor complexes were selectively bound to hydroxyapatite (5 g/60 ml TE-buffer). The formed complex was separated, washed and resuspended in ethanol. For radiodetection, scintillator cocktail (Quickszint 212, Zinsser Analytic, Frankfurt) was added and the samples were measured in a liquid scintillation counter (Rack Beta Primo 1209, Wallac, Turku). […] The compound concentration to displace 50% of the receptor bound [^3H]-E2 were determined. Unlabelled E2 was used as a reference. For determination of the relative binding affinity (RBA) the ratio was calculated according to the following equation: […]
(§2) After the assay was established and validated a modification was made to increase throughput. […] Results were reported as RBA ranges.

The target of assay [3] is T1, 17β-HSD2 (Homo sapiens, UniProt P37059).
T1 sequence (P37059 1-387): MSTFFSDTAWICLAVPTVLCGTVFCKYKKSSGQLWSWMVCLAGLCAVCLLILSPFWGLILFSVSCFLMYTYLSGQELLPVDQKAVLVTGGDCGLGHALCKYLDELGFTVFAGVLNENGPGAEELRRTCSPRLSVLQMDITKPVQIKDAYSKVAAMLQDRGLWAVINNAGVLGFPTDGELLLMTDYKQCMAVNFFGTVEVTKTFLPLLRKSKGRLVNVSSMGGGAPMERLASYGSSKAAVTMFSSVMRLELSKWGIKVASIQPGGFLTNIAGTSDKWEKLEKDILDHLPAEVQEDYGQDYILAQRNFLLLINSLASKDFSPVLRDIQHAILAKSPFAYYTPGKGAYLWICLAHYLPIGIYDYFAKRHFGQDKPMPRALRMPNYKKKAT
In words: Inhibition of 17β-HSD2 in cell-free assay. The settings on record: human placenta, microsomal fraction, substrate E2 500 nM, cofactor NAD+ 1500 μM. Details: 17β-HSD2 was obtained directly from the microsomal fraction; from tissue; host or cells: human placenta, microsomal fraction. The class given is biochemical. On the procedure: (§3) Fresh human placenta was homogenized. Cytosolic and microsomal fractions were separated by centrifugation at 1000 g, 10000 g and 150000 g. 17β-HSD2 was obtained directly from the microsomal fraction. For the partial purification of 17β-HSD1, the cytosolic fraction was precipitated with ammonium sulfate. Aliquots containing 17β-HSD1 or 17β-HSD2 were stored frozen.
Inhibitor stock solutions were prepared in DMSO. Final concentration of DMSO was adjusted to 1% in all samples. The enzymatic reaction was started by addition of a mixture of unlabelled- and [^3H]-E2 (final concentration: 500 nM, 0.11 μCi). After 20 min at 37° C., the incubation was stopped with HgCl2 and the mixture was extracted with ether. After evaporation, the steroids were dissolved in acetonitrile. E1 and E2 were separated using acetonitrile/water (45:55) as mobile phase in a C18 RP chromatography column (Nucleodur C18, 3 μm, Macherey-Nagel, Duren) connected to a HPLC-system (Agilent 1100 Series, Agilent Technologies, Waldbronn). Detection and quantification of the steroids were performed using a radioflow detector (Berthold Technologies, Bad Wildbad). The conversion rate was calculated according to the following equation: […]

Assay [4] has as its target T1, 17β-HSD2. Kind of assay: Inhibition of 17β-HSD2 in MDA-MB-231 cellular assay. Format: cell-based. To be noted: MDA-MB-231 cells, substrate [3H]-E2 200 nM. On the procedure:
[^3H-E2] (200 nM) is used as substrate, and is incubated with the inhibitor for 3.5 h at 37° C. After ether extraction, substrate and product are separated by HPLC and detected with a radioflow detector following the method previously described.

Assay [5] has as its target T2, 17β-HSD1 (Homo sapiens, UniProt P14061).
T2 construct: For the partial purification of 17β-HSD1, the cytosolic fraction was precipitated with ammonium sulfate; from tissue; host or cells: human placenta, cytosolic fraction
T2 sequence (P14061 1-328): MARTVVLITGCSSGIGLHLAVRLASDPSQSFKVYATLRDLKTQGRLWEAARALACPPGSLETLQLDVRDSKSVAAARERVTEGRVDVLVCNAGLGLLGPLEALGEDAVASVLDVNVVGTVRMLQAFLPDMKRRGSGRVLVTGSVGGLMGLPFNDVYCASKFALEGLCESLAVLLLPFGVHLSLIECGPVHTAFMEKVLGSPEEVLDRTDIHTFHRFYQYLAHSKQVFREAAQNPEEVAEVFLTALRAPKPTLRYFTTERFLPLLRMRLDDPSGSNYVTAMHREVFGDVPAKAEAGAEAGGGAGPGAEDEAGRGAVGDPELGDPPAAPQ
In words: Inhibition of 17β-HSD1 in cell-free assay. The settings on record: human placenta, cytosolic fraction, substrate E1 500 nM, cofactor NADH 500 μM. Format: biochemical. On the procedure:
as §3
The 17β-HSD1 inhibition assay was performed similarly to the 17β-HSD2 test. The cytosolic fraction was incubated with NADH [500 μM], test compound and a mixture of unlabelled- and [^3H]-E1 (final concentration: 500 nM, 0.15 μCi) for 10 min at 37° C. Further treatment of the samples and HPLC separation was carried out as mentioned above for 17β-HSD2.

The target in assay [6] is T3, ERα (Homo sapiens, UniProt P03372).
T3 sequence (P03372 1-595): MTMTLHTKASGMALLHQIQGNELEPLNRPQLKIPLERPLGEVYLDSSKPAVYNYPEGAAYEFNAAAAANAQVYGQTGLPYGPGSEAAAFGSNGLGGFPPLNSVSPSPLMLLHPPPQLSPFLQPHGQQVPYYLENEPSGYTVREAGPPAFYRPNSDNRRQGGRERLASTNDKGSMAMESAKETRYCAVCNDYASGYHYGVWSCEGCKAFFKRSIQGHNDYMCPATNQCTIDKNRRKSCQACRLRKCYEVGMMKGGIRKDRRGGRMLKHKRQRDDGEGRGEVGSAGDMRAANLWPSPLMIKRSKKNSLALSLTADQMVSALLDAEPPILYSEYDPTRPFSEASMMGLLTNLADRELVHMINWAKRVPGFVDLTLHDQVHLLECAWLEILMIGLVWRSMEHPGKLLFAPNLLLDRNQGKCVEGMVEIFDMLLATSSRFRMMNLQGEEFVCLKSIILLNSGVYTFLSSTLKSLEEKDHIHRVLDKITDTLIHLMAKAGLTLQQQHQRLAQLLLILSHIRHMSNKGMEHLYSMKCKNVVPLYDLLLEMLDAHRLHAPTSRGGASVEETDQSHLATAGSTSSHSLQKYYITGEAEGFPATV
In words: ER affinity assay (ERα), [3H]-E2 displacement. To be noted: Relative Binding Affinity, E2 = 100%; recombinant human protein. The procedure:
as §1, §2

Assay [7] has as its target T1, 17β-HSD2. The settings on record: cited from earlier work.

Sequence of ERβ (Q92731 whole entry): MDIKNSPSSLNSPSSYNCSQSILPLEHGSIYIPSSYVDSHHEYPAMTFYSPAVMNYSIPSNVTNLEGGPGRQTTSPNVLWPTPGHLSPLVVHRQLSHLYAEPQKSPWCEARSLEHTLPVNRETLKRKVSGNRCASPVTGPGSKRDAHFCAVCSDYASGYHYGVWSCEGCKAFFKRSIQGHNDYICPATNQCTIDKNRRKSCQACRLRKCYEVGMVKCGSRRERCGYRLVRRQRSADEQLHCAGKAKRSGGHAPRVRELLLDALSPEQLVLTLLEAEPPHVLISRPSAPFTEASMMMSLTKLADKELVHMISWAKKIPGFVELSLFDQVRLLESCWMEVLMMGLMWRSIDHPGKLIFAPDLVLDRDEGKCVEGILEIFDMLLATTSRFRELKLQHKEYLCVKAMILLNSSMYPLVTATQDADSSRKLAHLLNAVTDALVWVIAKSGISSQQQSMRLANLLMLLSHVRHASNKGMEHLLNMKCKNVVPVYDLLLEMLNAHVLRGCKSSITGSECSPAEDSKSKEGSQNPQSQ

On to `CN1C(=O)C[C@H](c2ccccc2)[C@@H]1[C@H](O)c1ccc(-c2cccnc2)s1` [inhibitor 3], for which the “effect on local level of E2 and T in bones” value in assay [1] was “helps to maintain a sufficient local level of E2 and T in bones”.
Turning to `COc1cccc(-c2ccc(C(=O)N(C)c3cccc(C)c3)s2)c1` [compound 70, 5-(3-Methoxyphenyl)-N-methyl-N-m-tolylthiophene-2-carboxamide], the “ERβ RBA (%)” value in assay [2] is listed as less than 0.1%. Further, the IC50 amounted to 207 nM in assay [3] and 11500 nM in assay [5]. Further, 1 µM produced 50% inhibition in assay [4]. Also, the “ERα RBA (%)” value in assay [6] was less than 0.1%.
As for `COc1cccc(N(C)C(=O)c2ccc(-c3ccccc3)s2)c1` [compound 51, N-(3-Methoxyphenyl)-N-methyl-5-phenylthiophene-2-carboxamide], the “ERβ RBA (%)” value in assay [2] is on record as less than 0.1%. Besides, the IC50 in assay [3] stood at 207 nM; in assay [5], 4340 nM. The inhibition at 1 µM in assay [4] came to 67%. For the same compound, in assay [6], the “ERα RBA (%)” value is on record as less than 0.1%.
`COc1ccc(-c2ccc(C(=O)N(C)Cc3cccc(O)c3)s2)cc1` [compound 39, N-(3-Hydroxybenzyl)-5-(4-methoxyphenyl)-N-methylthiophene-2-carboxamide]: the “ERβ RBA (%)” value in assay [2] is less than 0.1%. The values for the IC50 in assay [3] and in assay [5] were 161 nM and more than 40000 nM, respectively. Also, the inhibition at 1 µM in assay [4] was 88%. For the same compound, the “ERα RBA (%)” value in assay [6] is on record as less than 0.1%.
Consider `CN(Cc1cccc(O)c1)C(=O)c1ccc(-c2ccccc2O)s1` [compound 28, N-(3-Hydroxybenzyl)-5-(2-hydroxyphenyl)-N-methylthiophene-2-carboxamide], for which the “ERβ RBA (%)” value in assay [2] is less than 0.1%. Besides, the values for the IC50 in assay [3] and in assay [5] were 148 nM and 2980 nM, respectively. Further, at 1 µM the inhibition in assay [4] was 75%. In addition, in assay [6], the “ERα RBA (%)” value is given as less than 0.1%.
Turning to `Cc1cccc(N(C)C(=O)c2ccc(-c3cccc(O)c3)s2)c1` [compound 71, 5-(3-Hydroxyphenyl)-N-methyl-N-m-tolylthiophene-2-carboxamide], in assay [2], the “ERβ RBA (%)” value was less than 0.1%. The IC50 in assay [3] turned out to be 644 nM; in assay [5] it was 6800 nM. For the same compound, in assay [6], the “ERα RBA (%)” value is recorded as less than 0.1%.
`COc1cccc(N(C)C(=O)c2ccc(-c3cccc(OC)c3F)s2)c1` [compound 56, 5-(2-Fluoro-3-methoxyphenyl)-N-(3-methoxyphenyl)-N-methylthiophene-2-carboxamide]: in assay [2], the “ERβ RBA (%)” value is recorded as less than 0.1%. In addition, in assay [3], half-maximal inhibition (IC50) was put at 62 nM. In assay [4], this compound registered an inhibition at 1 µM of 70%. Moreover, the “ERα RBA (%)” value in assay [6] is less than 0.1%.
As to `COc1cccc(-c2ccc(C(=O)N(C)Cc3cccc(O)c3)s2)c1F` [compound 43, 5-(2-Fluoro-3-methoxyphenyl)-N-(3-hydroxybenzyl)-N-methylthiophene-2-carboxamide], the “ERβ RBA (%)” value in assay [2] is less than 0.1%. Moreover, the IC50 in assay [3] turned out to be 61 nM; in assay [5], 4450 nM. Further, the “ERα RBA (%)” value in assay [6] is given as less than 0.1%.
Turning to `COc1cccc(CN(C)C(=O)c2ccc(-c3cccc(C)c3)cc2)c1` [compound 3, N-(3-Methoxybenzyl)-N,3′-dimethylbiphenyl-4-carboxamide], the “ERβ RBA (%)” value in assay [2] was less than 0.1%. For the same compound, the IC50 is 265 nM in assay [3] and more than 100000 nM in assay [5]. In addition, the “ERα RBA (%)” value in assay [6] is listed as less than 0.1%.
As to `C[C@]12CCC3c4ccc(O)cc4CCC3C1CC[C@@]21CCCC(=O)O1` (stereo partly shown) [C17-spirolactone 1], the figures for the “inhibitory activity (17β-HSD2)” value in assay [7] (at 100 nM) and in assay [7] (at 1 μM) were 40% and 70%, respectively.
`COc1cccc(-c2cccc(C(=O)N(C)c3cccc(OC)c3)c2)c1` [compound 11, 3′-Methoxy-N-(3-methoxyphenyl)-N-methylbiphenyl-3-carboxamide]: the “ERβ RBA (%)” value in assay [2] is less than 0.1%. In addition, the IC50 is 517 nM in assay [3] and more than 60000 nM in assay [5]. Further, the “ERα RBA (%)” value in assay [6] was less than 0.1%.
As for `Cc1cccc(-c2ccc(C(=O)N(C)Cc3cccc(O)c3)s2)c1` [compound 46, N-(3-Hydroxybenzyl)-N-methyl-5-m-tolylthiophene-2-carboxamide], in assay [2], the “ERβ RBA (%)” value is less than 0.1%. The IC50 in assay [3] stood at 163 nM; in assay [5], 10600 nM. Further, the “ERα RBA (%)” value in assay [6] is less than 0.1%.
`CN(Cc1cccc(O)c1)C(=O)c1ccc(-c2ccc(O)cc2)s1` [compound 26, N-(3-Hydroxybenzyl)-5-(4-hydroxyphenyl)-N-methylthiophene-2-carboxamide]: the “ERβ RBA (%)” value in assay [2] is recorded as less than 0.1%. Also, the results for the IC50 in assay [3] and in assay [5] were 335 nM and 5100 nM, respectively. Moreover, in assay [6], the “ERα RBA (%)” value is less than 0.1%.
Turning to `COc1cccc(CN(C)C(=O)c2ccc(-c3cccc(OC)c3)s2)c1` [compound 23, N-(3-Methoxybenzyl)-5-(3-methoxyphenyl)-N-methylthiophene-2-carboxamide], in assay [2], the “ERβ RBA (%)” value is less than 0.1%. Moreover, the values for the IC50 in assay [3] and in assay [5] were 370 nM and more than 100000 nM, respectively. Besides, the “ERα RBA (%)” value in assay [6] was less than 0.1%.
